Measurements as given in US6391918B1, “N-sulphonyl and N-sulphinyl phenylglycinamide” (priority 1998, dated 2002).

melting point: 136 to 138 °C
SMILES: CCS(=O)(=O)NC(C(=O)NCCc1ccc(OC)c(OC)c1)c1ccc(Cl)cc1 (stereo not shown)
